Results on five compounds are retold here after paper PMC4293281 (Bioorganic & medicinal chemistry, 2014).

In general, solubility refers to the concentration that dissolves in the medium under given conditions. What is called IC50 is the concentration that inhibits the measured activity by half.

The nature of data set [1]: aqueous solubility by LC-HRMS. It is filed as physicochemical. The note with it: distilled water, 30 °C, thermodynamic from solid.
The target of another data set is SV40 T Ag (Simian virus 40, UniProt P03070). The experiment in a line: steady state ATPase assay with SV40 T Ag. The format is biochemical. The note with it: for inhibition of SV40 T Ag ATPase activity at 100 μM: final concentration 100 μM, percent activity relative to T Ag without inhibitor.
A further data set has as its system SV40. Nature of the data set: SV40 viral DNA replication assay in CV1 cells. The format is cell-based, Simian Virus 40 in CV1 monkey kidney cells. The note with it: monkey kidney cells, range of concentrations.
The test system of another data set is HEK293 cells. The experiment in a line: HEK293 cell viability. The format is cell-based, human. Conditions: 20 h incubation, Cell Titer-Glo. (In general: ATP-based viability assays read luminescence as a measure of living cells.)
For another data set, the target named is human Hsp70 (Homo sapiens, UniProt P0DMV8). Nature of the data set: steady state ATPase assay with human Hsp70. The format is biochemical.
Data set [2] can be described thus: compound stability in male mouse liver microsomes. The format is in vitro ADME.
The target of data set [3] is human Hsp70 in the presence of a human J domain-containing protein (Hdj2) (Homo sapiens, UniProt P0DMV8). The experiment in a line: steady state ATPase assay, Hsp70 stimulated by J domain protein Hdj2. The format is biochemical. Conditions: 100 μM versus DMSO control, 60-min time course.
Data set [4] has as its target human Hsp70 in the presence of a J domain containing yeast protein (Hlj1) (Homo sapiens, UniProt P0DMV8). Nature of the data set: steady state ATPase assay, Hsp70 stimulated by J domain protein Hlj1. It is filed as biochemical.

Converted amounts (≈) assume the structure as drawn. Some results are limits rather than exact numbers.

Sequence of SV40 T Ag (P03070 whole entry): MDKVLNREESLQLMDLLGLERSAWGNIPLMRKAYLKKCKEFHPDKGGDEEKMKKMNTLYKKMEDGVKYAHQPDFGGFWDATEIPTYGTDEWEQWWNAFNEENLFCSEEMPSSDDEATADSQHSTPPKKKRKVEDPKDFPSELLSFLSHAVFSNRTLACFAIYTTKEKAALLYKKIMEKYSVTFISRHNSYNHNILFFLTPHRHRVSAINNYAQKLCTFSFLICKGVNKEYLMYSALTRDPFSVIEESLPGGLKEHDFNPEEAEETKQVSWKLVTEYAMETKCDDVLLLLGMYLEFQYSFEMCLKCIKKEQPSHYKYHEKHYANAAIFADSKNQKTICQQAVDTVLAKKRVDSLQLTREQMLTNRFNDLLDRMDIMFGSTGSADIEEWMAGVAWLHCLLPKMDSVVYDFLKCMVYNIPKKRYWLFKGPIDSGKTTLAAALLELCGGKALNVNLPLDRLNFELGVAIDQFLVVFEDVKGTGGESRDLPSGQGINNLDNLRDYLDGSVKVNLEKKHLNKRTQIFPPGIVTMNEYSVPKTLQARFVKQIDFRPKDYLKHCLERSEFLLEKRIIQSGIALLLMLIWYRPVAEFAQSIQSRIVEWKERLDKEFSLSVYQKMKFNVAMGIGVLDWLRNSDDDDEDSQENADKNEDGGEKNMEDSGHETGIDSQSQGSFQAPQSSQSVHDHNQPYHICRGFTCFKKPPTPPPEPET
Sequence of human Hsp70 (P0DMV8 whole entry): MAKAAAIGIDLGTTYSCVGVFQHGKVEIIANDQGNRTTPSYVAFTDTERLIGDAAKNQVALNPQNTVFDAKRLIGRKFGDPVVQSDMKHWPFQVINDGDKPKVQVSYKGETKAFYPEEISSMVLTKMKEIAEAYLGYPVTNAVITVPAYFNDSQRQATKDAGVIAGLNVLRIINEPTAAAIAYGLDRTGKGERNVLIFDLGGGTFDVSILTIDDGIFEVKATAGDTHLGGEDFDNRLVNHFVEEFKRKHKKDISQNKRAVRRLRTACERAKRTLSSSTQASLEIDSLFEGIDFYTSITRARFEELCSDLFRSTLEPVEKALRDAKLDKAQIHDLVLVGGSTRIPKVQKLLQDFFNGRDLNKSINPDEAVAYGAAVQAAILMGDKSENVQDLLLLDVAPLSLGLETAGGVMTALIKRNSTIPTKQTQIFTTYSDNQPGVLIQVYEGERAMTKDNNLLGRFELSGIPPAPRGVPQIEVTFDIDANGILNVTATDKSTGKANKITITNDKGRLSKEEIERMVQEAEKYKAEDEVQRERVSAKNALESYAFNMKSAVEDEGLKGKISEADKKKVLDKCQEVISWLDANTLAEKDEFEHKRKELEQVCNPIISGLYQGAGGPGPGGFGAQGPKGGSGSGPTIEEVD
Sequence of human Hsp70 in the presence of a human J domain-containing protein (Hdj2) (P0DMV8 whole entry): as above
Sequence of human Hsp70 in the presence of a J domain containing yeast protein (Hlj1) (P0DMV8 whole entry): as above

`CC1=C(C(=O)OCc2ccccc2)C(c2ccc(-c3ccccc3)cc2)NC(=O)N1Cc1ccc(-c2nnn[nH]2)cc1` (stereo not drawn) [ML282-56, Benzyl 1-(4-(1H-tetrazol-5-yl)benzyl)-4-([1,1′-biphenyl]-4-yl)-6-methyl-2-oxo-1,2,3,4-tetrahydropyrimidine-5-carboxylate] displayed a solubility at 24 h in data set [1] of 14.4 ± 0.5 µg/mL (≈ 25.9 µM). Further, at SV40 T Ag, the IC50 is roughly 50 µM and the “inhibition of SV40 T Ag ATPase activity at 100 μM” value is on record as “inhibited T Ag ATPase activity”. Moreover, the “inhibition of SV40 replication (viral DNA by qPCR)” value in the data set on SV40 is recorded as “inhibited viral replication”.

For the compound `CC1=C(C(=O)OCc2ccccc2)C(c2ccc(-c3ccccc3C)cc2)NC(=O)N1CCCCCc1nnn[nH]1` (stereo not drawn) [LR340-006, Benzyl 1-(5-(1H-tetrazol-5-yl)pentyl)-6-methyl-4-(2′-methyl-[1,1′-biphenyl]-4-yl)-2-oxo-1,2,3,4-tetrahydropyrimidine-5-carboxylate], the IC50 at SV40 T Ag is roughly 50 µM. Further, the “inhibition of SV40 T Ag ATPase activity, titration” value against SV40 T Ag (titration at 10, 30 and 100 μM) was “most potent”.

Regarding `CC1=C(C(=O)OCc2ccccc2)C(c2ccc(-c3ccccc3)cc2)NC(=O)N1CCCCCC(=O)NS(C)(=O)=O` (stereo not drawn) [ML282-66, Benzyl 4-([1,1′-biphenyl]-4-yl)-6-methyl-1-(6-(methylsulfonamido)-6-oxohexyl)-2-oxo-1,2,3,4-tetrahydropyrimidine-5-carboxylate], the “inhibition of SV40 T Ag ATPase activity at 100 μM” value against SV40 T Ag is “inhibited T Ag ATPase activity”. Besides, on SV40 T Ag (titration, 30 μM), the “inhibition of SV40 T Ag ATPase activity at 30 μM” value is reported as “reduced compared to ML282-56”.

`CN[C@@H]1C[C@H]2O[C@@](C)([C@@H]1OC)n1c3ccccc3c3c4c(c5c6ccccc6n2c5c31)C(=O)NC4` [Staurosporine] came in with an LD50 in the data set with HEK293 cells of less than 3 µM.

Regarding `CC1=C(C(=O)OCc2ccccc2)C(c2ccc(-c3ccccc3C)cc2)NC(=O)N1Cc1ccc(-c2nnn[nH]2)cc1` (stereo not drawn) [SMAL, Benzyl 1-(4-(1H-tetrazol-5-yl)benzyl)-6-methyl-4-(2′-methyl-[1,1′-biphenyl]-4-yl)-2-oxo-1,2,3,4-tetrahydropyrimidine-5-carboxylate], the results for the half-maximal inhibitory concentration (IC50) (against human Hsp70; against SV40 T Ag; in data set [4]) were roughly 24 µM, roughly 5 µM and greater than 30 µM, respectively. Besides, the “inhibition of endogenous Hsp70 ATPase activity at 30 μM” value at human Hsp70 (final concentration 30 μM versus DMSO control) is on record as “inhibited the endogenous activity of Hsp70”. Besides, the “compound remaining after 60 min incubation” value in data set [2] (male mouse liver microsomes, NADPH, 1 h) is ~ 68%. The “stability in liver microsomes” value in data set [2] (murine liver microsomes) was “quite stable”. The compound further showed a solubility at 24 h in data set [1] of 62.4 ± 3.1 µg/mL (≈ 109 µM). In data set [3], the “inhibition of Hdj2 activation of Hsp70 ATPase” value is on record as “stronger than MAL2-11B tetrazole”. Further, in the data set with SV40, the “inhibition of SV40 replication (viral DNA by qPCR)” value is given as “inhibited viral replication”.
